{"source": "patent US7790752B2", "about": "“Indol-3-yl-carbonyl-azaspiro derivatives” (Hoffmann-La Roche Inc., priority 2005, dated 2010)", "biological_target": "T1, human V1a receptor (Homo sapiens, UniProt P37288)", "T1 construct": "expressed in transfected cells; host or cells: HEK293 cells, transiently transfected; membrane preparation", "T1 sequence (P37288 whole entry)": "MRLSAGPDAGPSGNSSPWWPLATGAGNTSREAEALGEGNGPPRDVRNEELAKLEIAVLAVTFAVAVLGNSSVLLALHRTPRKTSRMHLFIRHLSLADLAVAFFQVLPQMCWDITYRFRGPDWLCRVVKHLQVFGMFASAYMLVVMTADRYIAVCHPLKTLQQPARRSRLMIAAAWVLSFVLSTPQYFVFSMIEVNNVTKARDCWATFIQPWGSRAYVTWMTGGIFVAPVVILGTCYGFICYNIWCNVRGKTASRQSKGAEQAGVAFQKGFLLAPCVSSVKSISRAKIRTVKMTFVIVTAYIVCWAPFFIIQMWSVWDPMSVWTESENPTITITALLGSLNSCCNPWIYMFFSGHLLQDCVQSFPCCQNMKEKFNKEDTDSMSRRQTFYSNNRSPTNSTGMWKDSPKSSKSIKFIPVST", "experiment": "human V1a receptor binding (3H-Vasopressin SPA, HEK293 membranes)", "settings": "displacement of 3H-Vasopressin; membranes of HEK293 cells transiently transfected with human V1a receptor; Ki from IC50 by Cheng-Prussoff equation", "protocol": "The human V1a receptor was cloned by RT-PCR from total human liver RNA. The coding sequence was subcloned in an expression vector after sequencing to confirm the identity of the amplified sequence. […] Cell membranes were prepared from HEK293 cells transiently transfected with the expression vector and grown in 20 liter fermenters with the following protocol.\n50 g of cells are resuspended in 30 ml freshly prepared ice cold Lysis buffer (50 mM HEPES, 1 mM EDTA, 10 mM MgCl2 adjusted to pH=7.4+complete cocktail of protease inhibitor (Roche Diagnostics)). Homogenized with Polytron for 1 min and sonicated on ice for 2×2 minutes at 80% intensity (Vibracell sonicator). The preparation is centrifuged 20 min at 500 g at 4° C., the pellet is discarded and the supernatant centrifuged 1 hour at 43,000 g at 4° C. (19,000 rpm). The pellet is resuspended in 12.5 ml Lysis buffer+12.5 ml Sucrose 20% and homogenized using a Polytron for 1-2 min. The protein concentration is determined by the Bradford method, and aliquots are stored at −80° C. until use. For binding studies 60 mg Yttrium silicate SPA beads (Amersham) are mixed with an aliquot of membrane in binding buffer (50 mM Tris, 120 mM NaCl, 5 mM KCl, 2 mM CaCl2, 10 mM MgCl2) for 15 minutes with mixing. 50 ul of bead/membrane mixture is then added to each well of a 96 well plate, followed by 50 ul of 4 nM 3H-Vasopressin (American Radiolabeled Chemicals). For total binding measurement 100 ul of binding buffer are added to the respective wells, for non-specific binding 100 ul of […] cold vasopressin and for compound testing 100 ul of a serial dilution of each compound in 2% DMSO. The plate is incubated 1 h at room temperature, centrifuged 1 min at 1000 g and counted on a Packard Top-Count. Non-specific binding counts are subtracted from each well, and data is normalized to the maximum specific binding set at 100%. To calculate an IC 50 the curve is fitted using a non-linear regression model (XLfit), and the Ki is calculated using the Cheng-Prussoff equation.", "data": [{"smiles": "Cc1c(C(=O)N2CCC3(CC2)C(=O)N(C)CN3c2ccccc2)c2ccccc2n1Cc1ccccc1", "note": "[Example 1, 8-[(1-Benzyl-2-methyl-1H-indol-3-yl)carbonyl]-3-methyl-1-phenyl-1,3,8-triazaspiro[4.5]decan-4-one]", "values": [{"measurement": "Ki", "result": 368, "unit": "nM"}]}, {"smiles": "Cc1c(C(=O)N2CCC3(CC2)C(=O)NCN3c2ccccc2)c2ccccc2n1Cc1ccccc1", "note": "[Example 2, 8-(1-Benzyl-2-methyl-1H-indole-3-carbonyl)-1-phenyl-1,3,8-triaza-spiro[4.5]decan-4-one]", "values": [{"measurement": "Ki", "result": 367, "unit": "nM"}]}, {"smiles": "CN(C)CCn1cc(C(=O)N2CCC3(CC2)C(=O)N(C)CN3c2ccccc2)c2ccc(Cl)cc21", "note": "[Example 7, 8-({6-Chloro-1-[2-(dimethylamino)ethyl]-1H-indol-3-yl}carbonyl)-3-methyl-1-phenyl-1,3,8-triazaspiro[4.5]decan-4-one]", "values": [{"measurement": "Ki", "result": 156, "unit": "nM"}]}, {"smiles": "CNC(=O)Cn1cc(C(=O)N2CCC3(CC2)C(=O)N(C)CN3c2ccccc2)c2ccc(Cl)cc21", "note": "[Example 8, 2-{6-Chloro-3-[(3-methyl-4-oxo-1-phenyl-1,3,8-triazaspiro[4.5]dec-8-yl)carbonyl]-1H-indol-1-yl}-N-methylacetamide]", "values": [{"measurement": "Ki", "result": 37, "unit": "nM"}]}, {"smiles": "CN1CN(c2ccccc2)C2(CCN(C(=O)c3cn(Cc4cc(F)cc(F)c4)c4cc(Cl)ccc34)CC2)C1=O", "note": "[Example 9, 8-{[6-Chloro-1-(3,5-difluorobenzyl)-1H-indol-3-yl]carbonyl}-3-methyl-1-phenyl-1,3,8-triazaspiro[4.5]decan-4-one]", "values": [{"measurement": "Ki", "result": 21, "unit": "nM"}]}, {"smiles": "CN(C)C(=O)Cn1cc(C(=O)N2CCC3(CC2)C(=O)N(C)CN3c2ccccc2)c2ccc(Cl)cc21", "note": "[Example 10, 2-{6-Chloro-3-[(3-methyl-4-oxo-1-phenyl-1,3,8-triazaspiro[4.5]dec-8-yl)carbonyl]-1H-indol-1-yl}-N,N-dimethylacetamide]", "values": [{"measurement": "Ki", "result": 14, "unit": "nM"}]}, {"smiles": "CN1CN(c2ccccc2)C2(CCN(C(=O)c3cn(Cc4ccccc4)c4cc(Cl)ccc34)CC2)C1=O", "note": "[Example 11, 8-[(1-Benzyl-6-chloro-1H-indol-3-yl)carbonyl]-3-methyl-1-phenyl-1,3,8-triazaspiro[4.5]decan-4-one]", "values": [{"measurement": "Ki", "result": 45, "unit": "nM"}]}, {"smiles": "CN1CN(c2ccccc2)C2(CCN(C(=O)c3cn(Cc4cccc(Cl)c4F)c4cc(Cl)ccc34)CC2)C1=O", "note": "[Example 13, 8-{[6-Chloro-1-(3-chloro-2-fluorobenzyl)-1H-indol-3-yl]carbonyl}-3-methyl-1-phenyl-1,3,8-triazaspiro[4.5]decan-4-one]", "values": [{"measurement": "Ki", "result": 73, "unit": "nM"}]}, {"smiles": "CN(C)CCNC(=O)Cn1cc(C(=O)N2CCC3(CC2)C(=O)N(C)CN3c2ccccc2)c2ccc(Cl)cc21", "note": "[Example 14, 2-{6-Chloro-3-[(3-methyl-4-oxo-1-phenyl-1,3,8-triazaspiro[4.5]dec-8-yl)carbonyl]-1H-indol-1-yl}-N-[2-(dimethylamino)ethyl]acetamide]", "values": [{"measurement": "Ki", "result": 184, "unit": "nM"}]}, {"smiles": "Cc1c(C(=O)N2CCC3(CC2)OCCO3)c2ccccc2n1Cc1ccccc1", "note": "[Example 15, (1-Benzyl-2-methyl-1H-indol-3-yl)-(1,4-dioxa-8-aza-spiro[4.5]dec-8-yl)-methanone]", "values": [{"measurement": "Ki", "result": 424, "unit": "nM"}]}, {"smiles": "O=C(c1c[nH]c2cc(Cl)ccc12)N1CCC2(CC1)OCCO2", "note": "[Example 16, 8-[(6-Chloro-1H-indol-3-yl)carbonyl]-1,4-dioxa-8-azaspiro[4.5]decane]", "values": [{"measurement": "Ki", "result": 284, "unit": "nM"}]}]}
